From ChEMBL document CHEMBL5154845, “Dual-acting antitumor agents targeting the A2A adenosine receptor and histone deacetylases: Design and synthesis of 4-(furan-2-yl)-1H-pyrazolo[3,4-d]pyrimidin-6-amine derivatives” (Eur J Med Chem, 2022)

Key:
[1] = molecular target: Adenosine receptor A2a (Homo sapiens, UniProt P29274); experiment: Displacement of [3H][…] from human A2AAR incubated for 60 mins by scintillation counter analysis
[2] = molecular target: Histone deacetylase 1 (Homo sapiens, UniProt Q13547); experiment: Inhibition of HDAC1 (unknown origin) using trypsin and LGK(Ac)-AMC as substrates incubated for 1 hr and measured by fluorescence assay
Chain of Histone deacetylase 1 (Q13547 whole entry): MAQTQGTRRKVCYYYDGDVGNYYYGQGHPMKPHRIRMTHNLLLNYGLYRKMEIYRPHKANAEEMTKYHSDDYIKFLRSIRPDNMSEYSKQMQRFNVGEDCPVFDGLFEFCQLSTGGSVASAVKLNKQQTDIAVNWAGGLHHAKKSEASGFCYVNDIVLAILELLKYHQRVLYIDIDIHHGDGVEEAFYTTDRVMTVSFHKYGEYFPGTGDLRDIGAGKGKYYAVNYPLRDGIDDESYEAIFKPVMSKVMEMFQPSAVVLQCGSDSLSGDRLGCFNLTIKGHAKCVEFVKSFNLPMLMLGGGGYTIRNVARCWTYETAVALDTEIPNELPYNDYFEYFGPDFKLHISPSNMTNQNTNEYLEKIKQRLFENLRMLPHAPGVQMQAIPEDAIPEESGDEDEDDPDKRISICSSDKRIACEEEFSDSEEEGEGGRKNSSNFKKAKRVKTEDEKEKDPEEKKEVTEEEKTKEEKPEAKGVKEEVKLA

[3] = test system: CT26; experiment: Antiproliferative activity against mouse CT26 cells after 72 hrs by CCK-8 assay; assay type: functional
[4] = test system: MC-38; experiment: Antiproliferative activity against mouse MC38 cells after 72 hrs by CCK-8 assay; assay type: functional
[5] = Mean residence time in male ICR mouse at 20 mg/kg, po measured up to 24 hrs by LC-MS/MS analysis; assay type: ADME, organism-based; conditions: in vivo
[6] = AUC (0 to t) in male ICR mouse at 20 mg/kg, po measured up to 24 hrs by LC-MS/MS analysis; assay type: ADME, organism-based; set-up: time < 24 hrs, dose 20 mg/kg, route po; conditions: in vivo
[7] = Tmax in male ICR mouse at 20 mg/kg, po measured up to 24 hrs by LC-MS/MS analysis; assay type: ADME, organism-based; conditions: in vivo
[8] = Cmax in male ICR mouse at 20 mg/kg, po measured up to 24 hrs by LC-MS/MS analysis; assay type: ADME, organism-based; set-up: time < 24 hrs, dose 20 mg/kg, route po; conditions: in vivo
[9] = Elimination rate constant in male ICR mouse at 20 mg/kg, po measured up to 24 hrs by LC-MS/MS analysis; assay type: ADME, organism-based; conditions: in vivo
[10] = Half-life in male ICR mouse at 20 mg/kg, po measured up to 24 hrs by LC-MS/MS analysis; assay type: ADME, organism-based; conditions: in vivo
[11] = molecular target: T1, Adenosine receptor A3 (Homo sapiens, UniProt P0DMS8); experiment: Displacement of [3H]HEMADO from human A3AR incubated for 60 mins by scintillation counter analysis
T1 sequence (P0DMS8 whole entry): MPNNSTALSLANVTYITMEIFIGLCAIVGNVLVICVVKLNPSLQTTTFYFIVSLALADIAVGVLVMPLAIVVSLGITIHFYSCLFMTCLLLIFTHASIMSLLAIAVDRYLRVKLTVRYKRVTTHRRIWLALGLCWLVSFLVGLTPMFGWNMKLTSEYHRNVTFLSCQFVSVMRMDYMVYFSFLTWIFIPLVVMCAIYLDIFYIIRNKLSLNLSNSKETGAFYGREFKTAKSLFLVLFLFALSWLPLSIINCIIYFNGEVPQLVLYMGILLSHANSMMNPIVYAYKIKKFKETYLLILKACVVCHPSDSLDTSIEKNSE

[12] = molecular target: T2, Adenosine receptor A1 (Homo sapiens, UniProt P30542); experiment: Displacement of [3H]DPCPX from human A1AR incubated for 60 mins by scintillation counter analysis
T2 sequence (P30542 whole entry): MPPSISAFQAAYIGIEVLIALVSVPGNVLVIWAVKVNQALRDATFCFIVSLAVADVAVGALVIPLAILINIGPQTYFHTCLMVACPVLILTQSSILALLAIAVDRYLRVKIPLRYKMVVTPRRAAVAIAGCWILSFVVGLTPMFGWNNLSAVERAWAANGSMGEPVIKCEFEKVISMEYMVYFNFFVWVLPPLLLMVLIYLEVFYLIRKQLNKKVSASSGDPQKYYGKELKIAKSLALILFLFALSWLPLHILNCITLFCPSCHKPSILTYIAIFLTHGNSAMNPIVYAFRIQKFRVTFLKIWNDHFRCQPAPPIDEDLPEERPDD

[13] = molecular target: T3, Adenosine receptor A2b (Homo sapiens, UniProt P29275); experiment: Displacement of [3H]DPCPX from human A2BAR incubated for 60 mins by scintillation counter analysis
T3 sequence (P29275 whole entry): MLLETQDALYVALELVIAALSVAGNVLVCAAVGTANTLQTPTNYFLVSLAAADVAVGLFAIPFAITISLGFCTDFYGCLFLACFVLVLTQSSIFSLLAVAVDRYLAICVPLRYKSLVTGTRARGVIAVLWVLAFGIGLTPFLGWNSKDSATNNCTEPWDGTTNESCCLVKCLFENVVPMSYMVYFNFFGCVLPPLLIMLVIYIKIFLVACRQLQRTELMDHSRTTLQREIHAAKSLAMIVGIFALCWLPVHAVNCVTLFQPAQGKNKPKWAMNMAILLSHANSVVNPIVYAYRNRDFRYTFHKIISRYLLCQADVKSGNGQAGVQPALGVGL

Chain of Adenosine receptor A2a (P29274 whole entry): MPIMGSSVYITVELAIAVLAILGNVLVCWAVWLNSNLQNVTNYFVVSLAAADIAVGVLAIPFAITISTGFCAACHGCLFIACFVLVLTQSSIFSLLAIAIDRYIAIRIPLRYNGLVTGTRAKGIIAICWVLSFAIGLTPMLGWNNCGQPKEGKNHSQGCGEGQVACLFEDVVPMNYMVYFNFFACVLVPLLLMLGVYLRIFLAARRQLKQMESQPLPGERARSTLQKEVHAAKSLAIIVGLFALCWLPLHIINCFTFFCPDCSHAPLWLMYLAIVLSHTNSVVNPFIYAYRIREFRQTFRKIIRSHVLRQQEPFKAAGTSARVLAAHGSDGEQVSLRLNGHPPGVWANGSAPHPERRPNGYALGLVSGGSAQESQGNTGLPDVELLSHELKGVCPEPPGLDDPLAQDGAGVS

SMILES | Ki [1] [nM] | IC50 [2] [nM] | GI50 [3] [nM] | GI50 [4] [nM] | further results
Nc1nc(-c2ccco2)c2cnn(Cc3ccc(C(=O)NO)cc3)c2n1 | 863 | 12.8 |  |  | 
Cc1ccc(-c2nc(N)nc3c2cnn3CCc2ccc(C(=O)Nc3ccccc3N)cc2)o1 | 125 | 126 | 9130 | 7970 | 
Nc1nc(-c2ccco2)c2cnn(CCCc3ccc(C(=O)NO)cc3)c2n1 | 863 | 64.5 |  |  | 
Nc1nc(-c2ccco2)c2cnn(Cc3ccc(C(=O)Nc4ccccc4N)cc3)c2n1 | 1720 | 17.5 |  |  | 
Cc1ccc(-c2nc(N)nc3c2cnn3Cc2cccc(OCCCCCCC(=O)NO)n2)o1 | 159 | 29.5 | 7680 | 6410 | 
Cc1ccc(-c2nc(N)nc3c2cnn3CCCCCCCC(=O)NO)o1 | 585 | 7.2 |  |  | 
Cc1ccc(-c2nc(N)nc3c2cnn3CCCCC(=O)NO)o1 | 1830 | 228 |  |  | 
Nc1nc(-c2ccco2)c2cnn(Cc3ccc(/C=C/C(=O)Nc4ccccc4N)cc3)c2n1 | > 10000 | 116 |  |  | 
Cc1ccc(-c2nc(N)nc3c2cnn3CCCCCCC(=O)NO)o1 | 334 | 2.2 |  |  | 
Cc1ccc(-c2nc(N)nc3c2cnn3CCc2ccc(C(=O)NO)cc2)o1 | 295 | 73.5 |  |  | 
Cc1ccc(-c2nc(N)nc3c2cnn3CCCOc2ccc(C(=O)Nc3ccccc3N)cc2)o1 | 107 | 226 |  |  | 
Nc1nc(-c2ccco2)c2cnn(CCCCCC(=O)NO)c2n1 | 777 | 9.3 |  |  | 
Nc1nc(-c2ccco2)c2cnn(CCOc3ccc(C(=O)Nc4ccccc4N)cc3)c2n1 | 974 | 105 |  |  | 
Nc1nc(-c2ccco2)c2cnn(Cc3cccc(/C=C/C(=O)NO)c3)c2n1 | 130 | 8.4 | 2320 | 1910 | MRT [5]: 9.54 h; AUC(0-t) at 24 h [6]: 182 ng·h/mL; Tmax [7]: 0.25 h; Cmax [8]: 122 ng/mL; k el at 24 h [9]: 2.69e-05 s⁻¹; half-life [10]: 7.53 h
Nc1nc(-c2ccco2)c2cnn(CCOc3ccc(C(=O)NO)cc3)c2n1 | > 10000 | 11.1 |  |  | 
Cc1ccc(-c2nc(N)nc3c2cnn3Cc2cccc(/C=C/C(=O)NO)c2)o1 | 378 | 14.5 |  |  | 
Nc1nc(-c2ccco2)c2cnn(Cc3ccc(/C=C/C(=O)NO)cc3)c2n1 | 3590 | 7.1 |  |  | 
Nc1nc(-c2ccco2)c2cnn(CCCc3ccc(C(=O)Nc4ccccc4N)cc3)c2n1 | 140 | 186 | 7560 | 6960 | 
Nc1nc(-c2ccco2)c2cnn(CCCCC(=O)NO)c2n1 | 1560 | 394 |  |  | 
Cc1ccc(-c2nc(N)nc3c2cnn3Cc2ccc(C(=O)Nc3ccccc3N)cc2)o1 | > 10000 | 45 |  |  | 
Nc1nc(-c2ccco2)c2cnn(CCc3ccc(C(=O)NO)cc3)c2n1 | 436 | 126 |  |  | 
Cc1ccc(-c2nc(N)nc3c2cnn3CCCCCC(=O)NO)o1 | 617 | 7.3 |  |  | 
Nc1nc(-c2ccco2)c2cnn(CCCOc3ccc(C(=O)Nc4ccccc4N)cc3)c2n1 | 147 | 190 | > 30000 | > 30000 | 
Nc1nc(-c2ccco2)c2cnn(CCCCCCC(=O)NO)c2n1 | 301 | 2.4 | 33000 | 350 | 
Nc1ccccc1NC(=O)c1ccc(CNc2nccc(-c3cccnc3)n2)cc1 [MOCETINOSTAT] |  |  | 1770 | 1640 | 
Cc1ccc(-c2nc(N)nc3c2cnn3Cc2ccc(C(=O)NO)cc2)o1 | 2540 | 14 |  |  | 
Nc1nc(-c2ccco2)c2cnn(CCCCCCCC(=O)NO)c2n1 | 276 | 9.3 |  |  | 
O=C(CCCCCCC(=O)Nc1ccccc1)NO [VORINOSTAT] |  |  | 2350 | 2740 | 

More lines, in order of falling Ki [1], values ahead:

Ki [1] [nM] | IC50 [2] [nM] | GI50 [3] [nM] | SMILES | GI50 [4] [nM] | further results
74.3 | 45 | 19600 | Cc1ccc(-c2nc(N)nc3c2cnn3Cc2ccc(N)c(OCCCCCCC(=O)NO)c2)o1 | 26700 | 
72.8 | 210 |  | Cc1ccc(-c2nc(N)nc3c2cnn3Cc2cccc(OCCCCCC(=O)NO)n2)o1 |  | 
72 | 573 |  | Cc1ccc(-c2nc(N)nc3c2cnn3Cc2cccc(OCCCCC(=O)NO)n2)o1 |  | 
68.3 | 192 |  | Nc1nc(-c2ccco2)c2cnn(Cc3cccc(OCCCCCC(=O)NO)n3)c2n1 |  | 
52.8 | 42.5 | 13200 | Cc1ccc(-c2nc(N)nc3c2cnn3Cc2cccc(OCCCCCCC(=O)NO)c2)o1 | 11300 | 
50.7 | 420 |  | Nc1nc(-c2ccco2)c2cnn(Cc3cccc(OCCCCC(=O)NO)n3)c2n1 |  | 
35.8 | 1180 |  | Nc1nc(-c2ccco2)c2cnn(Cc3cccc(/C=C/C(=O)Nc4ccccc4N)c3)c2n1 |  | 
25.9 | 206 |  | Cc1ccc(-c2nc(N)nc3c2cnn3Cc2cccc(OCCCCC(=O)NO)c2)o1 |  | 
25 | 2530 |  | Cc1ccc(-c2nc(N)nc3c2cnn3Cc2cccc(/C=C/C(=O)Nc3ccccc3N)c2)o1 |  | 
15 | 37 | 22800 | Nc1nc(-c2ccco2)c2cnn(Cc3ccc(N)c(OCCCCCCC(=O)NO)c3)c2n1 | 28200 | 
14.7 | 23 | 5800 | Nc1nc(-c2ccco2)c2cnn(Cc3cccc(OCCCCCCC(=O)NO)n3)c2n1 | 5060 | MRT [5]: 1.16 h; Ki [11]: > 10000 nM; AUC(0-t) at 24 h [6]: 302 ng·h/mL; Tmax [7]: 0.25 h; Cmax [8]: 608 ng/mL; k el at 24 h [9]: 0.000131 s⁻¹; Ki [12]: 641 nM; Ki [13]: 2500 nM; half-life [10]: 1.48 h
12.3 | 95 | 18900 | Cc1ccc(-c2nc(N)nc3c2cnn3Cc2cccc(OCCCCCC(=O)NO)c2)o1 | 23200 | 
10.9 | 86 | 9990 | Nc1nc(-c2ccco2)c2cnn(Cc3cccc(OCCCCCC(=O)NO)c3)c2n1 | 9820 | 
7.3 | 151 |  | Nc1nc(-c2ccco2)c2cnn(Cc3cccc(OCCCCC(=O)NO)c3)c2n1 |  | 
